Source: patent US20120101100A1 (priority 2008, published 2012)

The molecules below were run against S. aureus GyrB ATPase (Staphylococcus aureus, UniProt P0A0K8) (assay: S. aureus (SAU) GyrB ATPase inhibition, malachite green phosphate detection (E. coli GyrA + S. aureus GyrB)). Settings: compound concentration of 1.0 μM unless otherwise noted; average value where assay was carried out more than once; read-out: S. aureus (SAU) GyrB ATPase % Inhibition.
Assay type: biochemical
Method in brief: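 Phosphate from ATP hydrolysis (500 μM ATP) read as malachite green/molybdate absorbance at 650 nm after acid quench. Reaction: 1.25 nM S. aureus GyrB plus 1.25 nM E. coli GyrA, sheared DNA, Hepes pH 7.5 with Mg2+. IC50 fitted over 10 concentrations, normalised to DMSO (2%) and novobiocin (2 μM) controls.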

S. aureus GyrB ATPase, sequence (P0A0K8 whole entry): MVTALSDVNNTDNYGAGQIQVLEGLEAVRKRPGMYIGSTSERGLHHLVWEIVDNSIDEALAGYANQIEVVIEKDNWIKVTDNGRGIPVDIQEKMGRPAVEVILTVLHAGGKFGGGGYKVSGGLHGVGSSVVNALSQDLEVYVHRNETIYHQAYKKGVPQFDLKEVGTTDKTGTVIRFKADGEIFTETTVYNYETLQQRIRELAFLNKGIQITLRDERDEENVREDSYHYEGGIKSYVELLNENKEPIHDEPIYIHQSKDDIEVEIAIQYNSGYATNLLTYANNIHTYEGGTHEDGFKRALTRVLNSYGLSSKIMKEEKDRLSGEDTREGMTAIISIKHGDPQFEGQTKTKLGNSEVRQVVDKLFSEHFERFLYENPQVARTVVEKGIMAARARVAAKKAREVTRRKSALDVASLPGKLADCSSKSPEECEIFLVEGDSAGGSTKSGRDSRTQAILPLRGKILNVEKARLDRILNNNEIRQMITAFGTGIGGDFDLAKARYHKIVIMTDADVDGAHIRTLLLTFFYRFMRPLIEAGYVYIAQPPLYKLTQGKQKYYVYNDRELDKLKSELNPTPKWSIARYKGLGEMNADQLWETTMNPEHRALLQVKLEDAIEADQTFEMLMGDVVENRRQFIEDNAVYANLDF
S. aureus GyrB ATPase, sequence (P0AES4 whole entry, further chain): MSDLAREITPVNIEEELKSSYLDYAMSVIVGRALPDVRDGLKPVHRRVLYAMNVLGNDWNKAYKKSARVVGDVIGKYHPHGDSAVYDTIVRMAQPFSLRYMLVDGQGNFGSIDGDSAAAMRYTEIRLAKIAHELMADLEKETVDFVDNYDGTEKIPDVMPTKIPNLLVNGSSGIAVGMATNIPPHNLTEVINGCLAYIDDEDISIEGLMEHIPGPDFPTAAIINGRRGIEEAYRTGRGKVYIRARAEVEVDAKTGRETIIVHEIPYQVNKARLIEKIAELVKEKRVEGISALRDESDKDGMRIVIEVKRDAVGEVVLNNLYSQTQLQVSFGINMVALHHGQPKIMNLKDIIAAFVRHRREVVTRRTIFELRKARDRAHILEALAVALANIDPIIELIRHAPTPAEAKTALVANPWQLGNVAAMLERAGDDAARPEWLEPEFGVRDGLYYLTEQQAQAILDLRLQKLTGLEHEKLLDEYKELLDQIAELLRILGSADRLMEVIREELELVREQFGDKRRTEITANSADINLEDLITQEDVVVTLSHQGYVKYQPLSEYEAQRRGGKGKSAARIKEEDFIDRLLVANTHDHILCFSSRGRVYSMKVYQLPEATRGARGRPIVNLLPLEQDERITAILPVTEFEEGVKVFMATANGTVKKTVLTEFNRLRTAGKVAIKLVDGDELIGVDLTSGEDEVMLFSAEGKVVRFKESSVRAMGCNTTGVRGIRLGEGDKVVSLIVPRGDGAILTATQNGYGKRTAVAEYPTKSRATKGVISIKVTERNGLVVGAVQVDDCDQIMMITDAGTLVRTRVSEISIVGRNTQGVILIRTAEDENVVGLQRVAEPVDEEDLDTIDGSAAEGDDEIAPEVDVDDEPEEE

Row | Structure (SMILES) | inhibition at 1 µM [%]
1 | CCNC(=O)Nc1cc(-c2nnc(-c3ccccc3)o2)c(-c2ncc(-c3nnc(C)o3)s2)cn1 [Example 230] | 91
2 | CCNC(=O)Nc1cc(-c2nc(-c3cnn(C)c3)cs2)c(-c2cc(-c3nnc(C)o3)cnc2OC2CCOCC2)cn1 [Example 231, 1-ethyl-3-(5′-(5-methyl-1,3,4-oxadiazol-2-yl)-4-(4-(1-methyl-1H-pyrazol-4-yl)thiazol-2-yl)-2′-(tetrahydro-2H-pyran-4-yloxy)-3,3′-bipyridin-6-yl)urea] | 96
3 | CCNC(=O)Nc1cc(-c2nc(-c3cccnc3OCCOC)cs2)c(-c2cc(-c3nnc(C)o3)cnc2OC2CCOCC2)cn1 [Example 232, 1-ethyl-3-(4-(4-(2-(2-methoxyethoxy)pyridin-3-yl)thiazol-2-yl)-5′-(5-methyl-1,3,4-oxadiazol-2-yl)-2′-(tetrahydro-2H-pyran-4-yloxy)-3,3′-bipyridin-6-yl)urea] | 99
4 | CCNC(=O)Nc1cc(-c2nc(-c3cnn(C)c3)cs2)c(-c2cncc(-c3nnc(C)o3)c2)cn1 [Example 233, 1-ethyl-3-(5′-(5-methyl-1,3,4-oxadiazol-2-yl)-4-(4-(1-methyl-1H-pyrazol-4-yl)thiazol-2-yl)-3,3′-bipyridin-6-yl)urea] | 100
5 | CCNC(=O)Nc1cc(-c2nc(C(F)(F)F)cs2)c(-c2cc(-c3nnc(C)o3)cnc2OCC2CC2)cn1 [Example 234, 1-(2′-(cyclopropylmethoxy)-5′-(5-methyl-1,3,4-oxadiazol-2-yl)-4-(4-(trifluoromethyl)thiazol-2-yl)-3,3′-bipyridin-6-yl)-3-ethylurea] | 105
6 | CCNC(=O)Nc1cc(-c2nc(C3CCCC3)cs2)c(-c2cncc(-c3nnc(C)o3)c2)cn1 [Example 235, 1-(4-(4-cyclopentylthiazol-2-yl)-5′-(5-methyl-1,3,4-oxadiazol-2-yl)-3,3′-bipyridin-6-yl)-3-ethylurea] | 101
7 | CCNC(=O)Nc1cc(-c2nc(C3CCCCC3)cs2)c(-c2cncc(-c3nnc(C)o3)c2)cn1 [Example 236, 1-(4-(4-cyclohexylthiazol-2-yl)-5′-(5-methyl-1,3,4-oxadiazol-2-yl)-3,3′-bipyridin-6-yl)-3-ethylurea] | 109
8 | CCNC(=O)Nc1cc(-c2nc(C(F)(F)F)cs2)c(-c2cncc(-c3nnc([C@H](C)O)o3)c2)cn1 [Example 237, (S)-1-ethyl-3-(5′-(5-(1-hydroxyethyl)-1,3,4-oxadiazol-2-yl)-4-(4-(trifluoromethyl)thiazol-2-yl)-3,3′-bipyridin-6-yl)urea] | 110
9 | CCNC(=O)Nc1cc(-c2nc(C(F)(F)F)cs2)c(-c2cncc(-c3nnc([C@@H](N)C4CCCCC4)o3)c2)cn1 [Example 238, (S)-1-(5′-(5-(amino(cyclohexyl)methyl)-1,3,4-oxadiazol-2-yl)-4-(4-(trifluoromethyl)thiazol-2-yl)-3,3′-bipyridin-6-yl)-3-ethylurea] | 96
10 | CCNC(=O)Nc1cc(-c2nc(C(F)(F)F)cs2)c(-c2cncc(-c3nnc([C@@H]4COCCN4)o3)c2)cn1 [Example 239, (S)-1-ethyl-3-(5′-(5-(morpholin-3-yl)-1,3,4-oxadiazol-2-yl)-4-(4-(trifluoromethyl)thiazol-2-yl)-3,3′-bipyridin-6-yl)urea] | 94
11 | CCNC(=O)Nc1cc(-c2nc(C(F)(F)F)cs2)c(-c2cncc(-c3nnc([C@H]4COCCN4)o3)c2)cn1 [Example 240, (R)-1-ethyl-3-(5′-(5-(morpholin-3-yl)-1,3,4-oxadiazol-2-yl)-4-(4-(trifluoromethyl)thiazol-2-yl)-3,3′-bipyridin-6-yl)urea] | 95
12 | CCNC(=O)Nc1cc(-c2nc(C(F)(F)F)cs2)c(-c2ccnc(-c3nnc([C@@H](N)C4CCCCC4)o3)c2)cn1 [Example 241, (S)-1-(2′-(5-(amino(cyclohexyl)methyl)-1,3,4-oxadiazol-2-yl)-4-(4-(trifluoromethyl)thiazol-2-yl)-3,4′-bipyridin-6-yl)-3-ethylurea] | 97
13 | CCNC(=O)Nc1cc(-c2nc(C(F)(F)F)cs2)c(-c2ccnc(-c3nnc([C@@H]4COCCN4)o3)c2)cn1 [Example 242, (S)-1-ethyl-3-(2′-(5-(morpholin-3-yl)-1,3,4-oxadiazol-2-yl)-4-(4-(trifluoromethyl)thiazol-2-yl)-3,4′-bipyridin-6-yl)urea] | 118
14 | CCNC(=O)Nc1cc(-c2nc(C(F)(F)F)cs2)c(-c2ccnc(-c3nnc([C@H]4COCCN4)o3)c2)cn1 [Example 243, (R)-1-ethyl-3-(2′-(5-(morpholin-3-yl)-1,3,4-oxadiazol-2-yl)-4-(4-(trifluoromethyl)thiazol-2-yl)-3,4′-bipyridin-6-yl)urea] | 122
15 | CCNC(=O)Nc1cc(-c2nc(C(F)(F)F)cs2)c(-c2ccnc(-c3nnc([C@@H](NC)C(C)C)o3)c2)cn1 [Example 244, (S)-1-ethyl-3-(2′-(5-(2-methyl-1-(methylamino)propyl)-1,3,4-oxadiazol-2-yl)-4-(4-(trifluoromethyl)thiazol-2-yl)-3,4′-bipyridin-6-yl)urea] | 96
16 | CCNC(=O)Nc1cc(-c2nc(-c3cccc(OC)n3)cs2)c(-c2cncc(S(N)(=O)=O)c2)cn1 [Example 247, 6′-(3-ethylureido)-4′-(4-(6-methoxypyridin-2-yl)thiazol-2-yl)-3,3′-bipyridine-5-sulfonamide] | 100
17 | CCNC(=O)Nc1cc(-c2nc(-c3cccc(OC)n3)cs2)c(-c2ccnc(-c3n[nH]c(=O)o3)c2)cn1 [Example 248, 1-ethyl-3-(4-(4-(6-methoxypyridin-2-yl)thiazol-2-yl)-2′-(5-oxo-4,5-dihydro-1,3,4-oxadiazol-2-yl)-3,4′-bipyridin-6-yl)urea] | 104
18 | CCNC(=O)Nc1cc(-c2nc(-c3cccc(OC)n3)cs2)c(-c2ccnc(-c3nnc(C)o3)c2)cn1 [Example 249, 1-ethyl-3-(4-(4-(6-methoxypyridin-2-yl)thiazol-2-yl)-2′-(5-methyl-1,3,4-oxadiazol-2-yl)-3,4′-bipyridin-6-yl)urea] | 97
19 | CCNC(=O)Nc1cc(-c2nc(-c3cccc(OC)n3)cs2)c(-c2cncc(-c3nnc(C)o3)c2)cn1 [Example 250, 1-ethyl-3-(4-(4-(6-methoxypyridin-2-yl)thiazol-2-yl)-5′-(5-methyl-1,3,4-oxadiazol-2-yl)-3,3′-bipyridin-6-yl)urea] | 101
20 | CCNC(=O)Nc1cc(-c2nc(-c3cccc(OC)n3)cs2)c(-c2nc(-c3ncnn3C)c(-c3n[nH]c(=O)o3)s2)cn1 [Example 251, 1-ethyl-3-(4-(4-(6-methoxypyridin-2-yl)thiazol-2-yl)-5-(4-(1-methyl-1H-1,2,4-triazol-5-yl)-5-(5-oxo-4,5-dihydro-1,3,4-oxadiazol-2-yl)thiazol-2-yl)pyridin-2-yl)urea] | 99
21 | CCNC(=O)Nc1cc(-c2nc(-c3cccc(OC)n3)cs2)c(-c2nc(-c3ncnn3C)c(-c3nnc(C)o3)s2)cn1 [Example 252, 1-ethyl-3-(4-(4-(6-methoxypyridin-2-yl)thiazol-2-yl)-5-(5-(5-methyl-1,3,4-oxadiazol-2-yl)-4-(1-methyl-1H-1,2,4-triazol-5-yl)thiazol-2-yl)pyridin-2-yl)urea] | 99
22 | CCNC(=O)Nc1cc(-c2nc(C(F)(F)F)cs2)c(-c2cnc(OCCOC)c(-c3n[nH]c(=O)o3)c2)cn1 [Example 254] | 97
23 | CCNC(=O)Nc1cc(-c2nc(C(F)(F)F)cs2)c(-c2cc(-c3nnc(C)o3)c[n+]([O-])c2)cn1 [Example 255, 6′-(3-ethylureido)-5-(5-methyl-1,3,4-oxadiazol-2-yl)-4′-(4-(trifluoromethyl)thiazol-2-yl)-3,3′-bipyridine 1-oxide] | 98
24 | CCNC(=O)Nc1cc(-c2nc(C(F)(F)F)cs2)c(-c2cncc(-c3nnc(C(F)F)[nH]3)c2)cn1 [Example 256, 1-(5′-(5-(difluoromethyl)-4H-1,2,4-triazol-3-yl)-4-(4-(trifluoromethyl)thiazol-2-yl)-3,3′-bipyridin-6-yl)-3-ethylurea] | 103
25 | CCNC(=O)Nc1cc(-c2nc(C(F)(F)F)cs2)c(-c2cncc(-c3nnc(C(F)(F)F)[nH]3)c2)cn1 [Example 257, 1-ethyl-3-(5′-(5-(trifluoromethyl)-4H-1,2,4-triazol-3-yl)-4-(4-(trifluoromethyl)thiazol-2-yl)-3,3′-bipyridin-6-yl)urea] | 102
26 | CCNC(=O)Nc1cc(-c2nc(C(F)(F)F)cs2)c(-c2cnc(N)c(-c3nnc(C)o3)c2)cn1 [Example 258, 1-(6′-amino-5′-(5-methyl-1,3,4-oxadiazol-2-yl)-4-(4-(trifluoromethyl)thiazol-2-yl)-3,3′-bipyridin-6-yl)-3-ethylurea] | 96
27 | CCNC(=O)Nc1cc(-c2nc(C(F)(F)F)cs2)c(-c2cc[n+]([O-])c(-c3nnc(C)o3)c2)cn1 [Example 259, 6-(3-ethylureido)-2′-(5-methyl-1,3,4-oxadiazol-2-yl)-4-(4-(trifluoromethyl)thiazol-2-yl)-3,4′-bipyridine 1′-oxide] | 95
28 | CCNC(=O)Nc1cc(-c2nc(C(F)(F)F)cs2)c(-c2cc(-c3n[nH]c(=O)o3)cnc2N)cn1 [Example 260, 1-(2′-amino-5′-(5-oxo-4,5-dihydro-1,3,4-oxadiazol-2-yl)-4-(4-(trifluoromethyl)thiazol-2-yl)-3,3′-bipyridin-6-yl)-3-ethylurea] | 96
29 | CCNC(=O)Nc1cc(-c2nc(C(F)(F)F)cs2)c(-c2c[nH]c(=O)c(-c3nnc(C)o3)c2)cn1 [Example 261, 1-ethyl-3-(5-(5-(5-methyl-1,3,4-oxadiazol-2-yl)-6-oxo-1,6-dihydropyridin-3-yl)-4-(4-(trifluoromethyl)thiazol-2-yl)pyridin-2-yl)urea] | 96
